From patent publication US20260263517A1, “THERAPEUTIC METHODS WITH TARGET-LINKED SMALL MOLECULES AND ANTI-TARGET CAR T CELLS” (Seattle Children's Hospital (dba Seattle Children's …, priority 2022, published 2026)
“Also recorded” adds a separate entry of the source.

Columns and labels:
[1] = system: THP1-FRβ tumor cells; test: intravenous THP1-FRβ AML xenograft, E2 CAR-T cells plus EC17 dosing regimens; type: in vivo
Protocol: One objective of this E2-CAR T-cell study was to test EC17/E2 CAR-T cell activity and related toxicity (e.g., sCRS) using multiple dosing regimens starting 3 days after CAR-T infusion. Three different EC17 dosing regimens include (a) once-a-week (SIW) at 500 nmol/kg, (b) “T1W-like” at 5, 50, and 500 nmol/kg on Monday/Wednesday/Friday with 9-day intervals, and (c) “T1W-like” at 5, 100, and 1000 nmol/kg on Monday/Thursday/Monday with 7-day intervals.
THP-1-FRβ AML tumor cells were grown in folate-deficient RPMI 1640 with 5-10% FBS at 37° C. in a 5% CO2 humidified atmosphere. THP-1-FRO tumor cells in serum-free folate-deficient RPMI1640 medium were i.v. injected at 5×10^6 cells per animal.
Anti-FITC E2 scFv-CAR T cells were frozen in a T-cell freezing medium. Upon arrival, vials of frozen CAR-T cells were immediately stored at −80° C. The CAR-T cells were quickly thawed at 37° C., washed twice with CAR-T cell culture medium, and used for animal injection at 6 million viable EGFRt+E2 CAR-T cells (CD4/CD8 at ~1:1) per animal. A small aliquot was taken on the day infusion for flow cytometric analysis of E2-CAR T-cell phenotypes.
EC17 and bis-EDA-FITC dosing solutions were prepared when dosing began by weighing appropriate amounts of each compound, reconstituting in PBS, pH 7.4, sterile filtering the drug solution through a 0.22 pm PVDF syringe filter, and freezing aliquots for each day of dosing at −20° C.
All EC17 doses were given towards the end of day (3-4 PM) to allow potential CRS (cytokine release syndrome) to develop overnight. In the following morning, animals were scored according to a CRS grading system (see below).
Daily body weight measurement on the days after EC17 dose is required. Attention was given to gross animal morphology and behavior. Euthanasia was performed if mice lose a lot of weight in a short duration or when mice are approaching moribund conditions per CRS grading system or neurotoxicity.
Tumor growth, body weight, and overall assessment: Body weight measured 2-3 times/week. On the days immediately after any EC17 dose, body weight measurement was taken daily, and attentions were given to gross animal morphology and behavior.
Whole blood cell analysis: Plasma was removed from predetermined volumes of whole EDTA treated blood and RBCs were lysed with RBC lysis solution. The leukocyte pellets were then resuspended in flow cytometry staining solution (1% bovine serum albumin, 50 mg/mL human IgG (Equitech Bio, cat #SLH56-0001), 0.9% sodium azide in a phosphate buffered saline, pH=7.4) and leukocyte surface marker staining was performed using the following antibodies: anti-human CD45 (clone HI30, eBioscience #47-0459-42 at 1:20 (v/v) dilution), anti-human CD137 (clone 4B4-1, BD Bioscience #564092 at 1:20 (v/v) dilution), anti-human CD8α [clone RPA-T8, BD Bioscience, catalog #557746 at 1:20 (v/v) dilution], anti-human CD4 [clone SK3, eBioscience catalog #46-0047-42 at 1:20 (v/v) dilution], anti-human EGFR [R&D systems, clone Hu1, catalog #FAB9577B @1:10(n/n)], anti-human PD1 [BD Biosciences, clone EH12.1, catalog #562511 @1:20 (v/v)], anti-human LAG3 [BD Biosciences, clone T47-530, catalog #565616 @1:20 (v/v)], anti-human TIM3 [BD Biosciences, clone 7D3, catalog #565558 @1:20 (v/v)], anti-human CD3ε [BD Biosciences, clone SK7, catalog #557832 @1:20 (v/v)]. After leukocyte staining, cells were washed with PBS and resuspended in cold PBS containing 53,000 CountBright™ beads [Invitrogen catalog #C36950] and transferred to flow cytometry collection tubes. Flow cytometry data was collected on the Gallios flow cytometer (Beckman Coulter, Brea, CA). Determination of the concentration of CAR T cells in each blood sample was calculated according to Invitrogen's instructions. CAR T cells were identified as human CD3ε+EGFRt+ events and easily distinguished and counted using the Kaluza™ flow cytometry software. […]

[2] = EC17 dose finding and CRS assessment in tumor-free mice; type: in vivo, NSG mice
Excerpt: For MDA-MB-231 studies, mice received a high dose (~10 million) of a “clinical facsimile” of E2-CAR-T cells (~39% EGFRt+) with a low differentiation profile (FIG. 9). Two days later, 3 different treatment regimens of EC17 were started at an average tumor size of −293±39 mm^3 (FIG. 12). The EC17 dosing was given once-a-week (SIW) at 500 nmol/kg on Mondays, or as escalating doses of 5, 50 or 100, and 500 or 1000 nmol/kg (i.e., 5/50/500 or 5/100/1000) on Monday, Thursday, and Monday with a 6-day break in-between cycles. Control mice were left untreated (received CAR-T cells but no EC17). For comparison, a cohort of tumor-free littermates also received the same number of CAR-T cells without or with EC17 SIW at 500 nmol/kg.
The initial EC17 dose finding studies were conducted in MDA-MB-231 tumor bearing mice as shown by the schematic diagram of the experimental layout (FIG. 12, panel A). NSG mice without or with MDA-MB-231 tumors (~211±65 mm3) were engrafted on day 0 with −10 million of a “clinical facsimile” batch of E2-CAR-T cells (−39% EGFRt+, 51:49 CD4/CD8). This batch of CAR-T cells consisted of mostly TSCM and TCM phenotypes (see FIG. 9). Two days after the CAR-T cell injection, one cohort of tumor-bearing mice were left untreated while three cohorts were treated with different regimens of EC17, including single injection per week (SIW) at 500 nmol/kg, or as escalating EC17 dose levels of 5/50/500 (Escalation-1) or 5/100/1000 nmol/kg (Escalation-2) given on a Monday/Thursday/Monday schedule with 1-week drug-free intervals. For comparison, two tumor-free cohorts were either untreated or treated with EC17 SIW at 500 nmol/kg.

[3] = water solubility of EC17; type: physicochemical
[4] = cited from earlier work
[5] = 6 million CAR-T + EC17 SIW 500 nmol/kg (Cohort 3)

NC1=NC2N=CC(CNc3ccc(C(=O)N[C@@H](CCC(=O)NCCNC(=S)Nc4ccc(-c5c6ccc(=O)cc-6oc6cc(O)ccc56)c(C(=O)O)c4)C(=O)O)cc3)=NC2C(=O)N1 (stereo partly drawn) [EC17, FA-(γ)-ethylenediamine-FITC]
body weight loss ([1]; 6 million CAR-T + EC17 M/Th/M dose escalation (Cohort 5)): little body weight loss during the first two cycles; also recorded: very mild body weight loss
CRS grade [1, 5]: 1-2
body weight loss [1, 5]: EC17 dose-dependent body weight loss after each EC17 dose; also recorded: some body weight loss
body weight loss ([1]; 6 million CAR-T + EC17 TIW 5/50/500 nmol/kg on/off (Cohort 4)): mildest body weight loss among three treatment groups; also recorded: least body weight loss
circulating THP1-FRβ (GFP+) tumor cells in blood ([1]; E2 CAR T cells + EC17, all three dosing regimens, end of study): significant reduction in circulating THP1 cell burden; also recorded: effectively reduced circulating THP11-FRβ tumor cells in the blood
non-liver macrometastases ([1]; EC17 M/Th/M dose escalation at a slow pace per cycle): failed to control the non-liver macrometastases
non-liver macrometastases ([1]; EC17 SIW 500 nmol/kg): successfully controlled non-liver macrometastases
non-liver macrometastases ([1]; EC17 TIW 5/50/500 nmol/kg on/off): successfully controlled non-liver macrometastases
liver and non-liver (overall) tumor burden ([1]; EC17 TIW 5/50/500 nmol/kg on/off (Cohort 4), Day 39): best anti-tumor activity among the three different EC17 dose schedules; also recorded: trended to be the best regimen
co-expression of PD1, LAG3, TIM3 on CAR T cells from liver tumors ([1]; EC17 TIW (cohort 4)): fewest number of double and triple positive events
CAR T exhaustion ([1]; all three EC17 dosing regimens): very little induction of CAR T exhaustion
severe CRS (grades≥3) ([1]; any EC17 treated cohort): no severe CRS (i.e., grades≥3) was observed
circulating CAR-T cells in blood ([1]; satellite animals, day 31, all EC17 treated cohorts): EC17-dependent CAR-T cell expansion and persistence in all treated cohorts
CAR-T cell expansion by flow cytometry ([2]; tumor-free cohorts): no CAR-T cell expansion was detected
body weight loss ([2]; tumor-free mice, CAR-T cells + two weekly doses of EC17 at 500 nmol/kg): no CRS symptoms (grade 0 out of a 0-5 scale) or body weight loss
IFNγ in plasma ([2]; tumor-free, CAR-T cells plus EC17, days 11 and 12): low levels of IFNγ were detected
water solubility [3]: good water solubility
Maximum Tolerated Dose (MTD) ([4]; EC17 doses of 3.1×10^−2 and 2.76×10^−1 mg/kg in previously-conducted human studies): not reached
subjects with mild hypersensitivity reaction (most common adverse event) ([4]; intravenous, single agent, 84 subjects): 10.7%
overall tolerability ([4]; intravenous, single agent): well tolerated
serious adverse events ([4]; intravenous, single agent): No serious adverse events were reported
